Assay results reported in US11738031B2, “Compositions and methods for preventing or treating muscle conditions” (The Board of Trustees of the Leland Stanford Junior …, priority 2017, dated 2023).
Entries after “also recorded” stand apart in the source; their conditions may differ.

Key:
[1] = system: MuSCs; assay: VisionBlue metabolic viability dose-response assay; assay type: cell-based, mouse; conditions: dose-response 1-200 ng/ml PGE2
Method: (§1) Proliferation assays: To assay proliferation, we used three different assays (hemocytometer, VisionBlue, and EdU). For each, we seeded MuSCs on flat hydrogels (hemocytometer and VisionBlue) or collagen-coated plates (EdU assay) at a density of 500 cells per cm^2 surface area. For hemocytometer cell number count, we collected cells at indicated timepoints by incubation with 0.5% trypsin in PBS for 5 min at 37° C. and quantified them using a hemocytometer at least 3 times. Additionally, we used the VisionBlue Quick Cell Viability Fluorometric Assay Kit (BioVision, catalog #K303) as a readout for cell growth in culture. Briefly, we incubated MuSCs with 10% VisionBlue in culture medium for 3 h, and measured fluorescence intensity on a fluorescence plate reader (Infinite M1000 PRO, Tecan) at Ex=530-570 nm, Em=590-620 nm. […] We quantified EdU positive cells using the MetaMorph Image Analysis software (Molecular Devices). Data analyses were blinded, where researchers performing cell scoring were unaware of the treatment condition given to sample groups analyzed.
To assay proliferation, we used three different assays (hemocytometer, VisionBlue, and EdU). […] For hemocytometer cell number count, we collected cells at indicated timepoints by incubation with 0.5% trypsin in PBS for 5 min at 37° C. and quantified them using a hemocytometer at least 3 times. […]

[2] = system: muscle stem cells (MuSCs); assay: MuSC proliferation in culture, cell number count (hemocytometer); assay type: cell-based, mouse
Method: Muscle stem cell culture, treatment and lentiviral infection: Following isolation, we resuspended MuSCs in myogenic cell culture medium containing DMEM/F10 (50:50), 15% FBS, 2.5 ng ml^−1 fibroblast growth factor-2 (FGF-2 also known as bFGF) and 1% penicillin-streptomycin. We seeded MuSC suspensions at a density of 500 cells per cm^2 surface area. We maintained cell cultures at 37° C. in 5% CO2 and changed medium daily. For PGE2, 15-PGDH inhibitor and EP4 receptor antagonist treatment studies, we added 1-200 ng/ml Prostaglandin E2 (Cayman Chemical) (unless specified in the figure legends, 10 ng/ml was the standard concentration used), and/or 1 μM EP4 antagonist (ONO-AE3-208, Cayman Chemical), or 1 μM 15-PGDH inhibitor (SW033291, Cayman Chemical) to the MuSCs cultured on collagen coated dishes for the first 24 h. The cells were then trypsinized and cells reseeded onto hydrogels for an additional 6 days of culture. All treatments were compared to their solvent (DMSO) vehicle control. For stripped serum assays, we resuspended isolated MuSCs in medium containing DMEM/F10 (50:50), 15% charcoal stripped FBS (Gibco, cat #12676011), 2.5 ng ml^−1 bFGF and 1% penicillin-streptomycin. […]
as §1, with “For each, we seeded MuSCs on flat hydrogels (hemocytometer and VisionBlue) or collagen-coated plates (EdU assay) at a density of 500 cells per cm^2 surface area.” left out, “analyzed. […]” for “analyzed.”

CCCCC[C@H](O)/C=C/[C@H]1[C@H](O)CC(=O)[C@@H]1C/C=C\CCCC(=O)O [PGE2, prostaglandin E2]
lowest drug concentration that promotes a robust MuSC proliferation response [1]: 10 ng/mL
MuSC proliferation in medium with charcoal stripped serum ([2]; PGE2 10 ng/ml added to stripped serum medium, 7 days on hydrogels): divided upon addition of PGE2; also recorded: rescued this block in proliferation
increase in the number of MuSCs relative to controls ([2]; PGE2 10 ng/ml, acute 1-day exposure, counted one week later, young MuSCs on hydrogel): 6 fold
